One assay concerns skin allograft. In words: Skin allograft rejection (CMI response). It is filed as in vivo, mice. As to conditions: 2.5 mg/kg p.o. (Levamisole). On the procedure:
Skin allograft rejection: Mice were employed for the skin transplantation that were administered LPPM/A003 daily for 7 days and the graft rejection time (GRT) was recorded by daily observation of the epithelial survival.

Assay [1] deals with peritoneal murine macrophages. In words: Phagocytic response in vitro: heat killed Candida albicans ingested by peritoneal macrophages. As to conditions: 10 μg/ml (Levamisole). It is filed as cell-based.
Procedure: Peritoneal macrophage cells (2×10^6) were allowed to adhere to glass cover slip for 90 minutes at 37° C. in 5% CO2 incubator (95% humidity). Simultaneously heat killed Candida albicans cells (100° C., 60 minutes) were opsonized for 90 minutes with 20% autologous serum to promote phagocytosis. The samples were washed with PBS and immediately evaluated microscopically. The percentage and average number of Candida albicans cells (heat killed) ingested by peritoneal murine macrophages was calculated.
Assay [2] relates to reticuloendothelial system. In words: Phagocytic response in vivo: clearance of carbon particles from circulation. On the set-up: species or system mice. Conditions: dose 2.5 mg/ml p.o. (Levamisole). As for the experimental part:
The phagocytic function of the reticuloendothelial system was assayed in groups of six mice each by injecting i.v. 160 mg/kg of 1.6% suspension of gelatin stabilized carbon particles of […] size (Atal et al., 1986). Blood samples were collected before and at intervals varying between 2 to 90 min after carbon injection. An aliquot (10 μL) of blood samples were lysed with 2 mL of 0.1% acetic acid and the transparency determined spectrophotometrically at 675 nm (Uvikon 810, spectrophotometer, Kontron Ltd, Switzerland) as per the method of Hudson and Hay (1980).

The record followed here is US20100303933A1, “IMMUNOPOTENTIATING COMPOSITION FROM LABISIA PUMILA EXTRACT” (HOLISTA BIOTECH SDN. BHD., priority 2007, published 2010).

Marks after values point to notes of the source that are not given here.

`c1ccc([C@H]2CN3CCSC3=N2)cc1` [Levamisole]: the “Rejection Time Days Mean ± S.E.” value with skin allograft came out at 8.50 ± 0.22 days. In the assay with skin allograft (↑ hastened), the “Graft Rejection (Percent)” value is on record as 34.61^b ↑ Percent. For the same compound, the “% Phagocytosis In vitro study Mean ± S.E.” value in assay [1] came out at 43.11 ± 2.92 %. For the same compound, the “% Phagocytosis Ex -In vivo study Mean ± S.E.” value in assay [2] was 1.78 ± 0.11 %.
